“Also recorded” adds a separate entry of the source.
Experiments:
parental HEK293 cells = assay: TLR2 functional bioassay in parental HEK293 cells (negative control); type: cell-based; settings: ligand stimulated HEK293 cells
Description: In Vitro TLR2 Functional Bioassay The in vitro TLR2 functional bioassay was developed and optimized for use in screening soluble compound libraries to identify both TLR2 agonists and antagonists. In this study, the TLR2 functional bioassay was used as a fast high throughput screening to identify TLR2 agonist ligands by measuring the inducing activity of NF-κB. HEK293/hTLR2 cells, highly overexpressing human TLR2, were used along with the parental HEK293, cells as a negative control. […] On day 4 after 24 hrs of peptide stimulation, luciferase induced activity by the induction of NF-κB was measured. […] The luminescence intensity was measured using the standard luminescence protocol on a Victor™ X4 plate-reader equipped with a plate stacker for readout of multiple plates at a time (PerkinElmer, Waltham, Mass.). […] Data were analyzed with GraphPad Prism software and curves were generated with the appropriate nonlinear fit regression analysis.
The in vitro TLR2 functional bioassay was developed and optimized for use in high-throughput screening of soluble compound libraries to identify both TLR2 agonists and antagonists. […] On day 4 after 24 h of peptide stimulation, luciferase induced activity by the induction of NF-κB was measured. […]

[1] = test system: Trp1455/9M-specific CD8 T cells; assay: In vivo cellular immune response assay (immune adjuvant); parameters: species or system B6 mice; settings: for fluorescence of stained tetramer positive CD8 T cells: day 7; for maximum amount of fluorescently stained tetramer positive CD8 T cells: day 7, peripheral blood, i.v. immunization, n=3
Method: To assess the efficacy of T-02 as an immune adjuvant, mice were immunized i.v. with a mixture of 100 μg optimized Trp1455/9M peptide (Guevara-Patino, J. A., et al. J Clin Invest, 2006. 116(5):1382-90), 50 μg anti-CD40 mAb (Clone; FGk-45.5), and 50 μg TLR-2 peptide (T-02, Pam2CSK4, or Pam3CSK4). […] The response of tetramer+ CD8 T cells in the blood was measured on day 7, 21, and 34 by tetramer staining. For tetramer staining, peripheral blood was taken from the submandibular vein and treated briefly with ammonium chloride buffer to lyse red blood cells. Blood cells were stained with FITC-conjugated anti-MHC class II, PerCP Cy5.5-conjugated CD8a (both from eBioscience, San Diego, Calif.), and phycoerythrin-conjugated Trp1455/9M/H-2D^b tetramers (provided by the NIH tetramer Facility, Emory University, Atlanta Ga.) for 40 min in ice. Fluorescence was evaluated using a FACSCalibur™ flow cytometer (BD Biosciences) and analyzed using FlowJo software.
C57BL/6 (B6) mice 6-8 weeks old were purchased from Charles River (Wilmington, Mass.). To assess the efficacy of 10 as an immune adjuvant, B6 mice were immunized i.v. with a mixture (in a volume of 200 μl) of 100 μg optimized Trp1455/9M peptide,[10c] 50 μg anti-CD40 monoclonal antibody (Clone; FGk-45.5), and 50 μg TLR2 agonist (10, Pam2CSK4, or Pam3CSK4). […] The response of tetramer positive CD8 T cells in the blood was measured on day 7, 21 and 34 by tetramer staining. For tetramer staining, peripheral blood was taken from the submandibular vein and treated briefly with ammonium chloride buffer to lyse red blood cells. Blood cells were stained with FITC-conjugated anti-MHC class II, PerCP Cy5.5-conjugated CD8a, and phycoerythrin-conjugated Trp1455/9M/H-2D^b tetramers for 40 min in ice. Fluorescence was evaluated using a FACSCalibur flow cytometer (BD Biosciences) and analyzed using FlowJo software.

| Compound | NF-κB induced luciferase activity in non-expressing TLR2 cell line (parental HEK293 cells) | fluorescence of stained tetramer positive CD8 T cells [1] | maximum amount of fluorescently stained tetramer positive CD8 T cells [1] [%] |
| --- | --- | --- | --- |
| CCCCCCCCCCCCCCCC(=O)OCC(CSC[C@H](N)C(=O)N[C@@H](CO)C(=O)N[C@@H](CCCCN)C(=O)N[C@@H](CCCCN)C(=O)N[C@@H](CCCCN)C(=O)N[C@@H](CCCCN)C(=O)O)OC(=O)CCCCCCCCCCCCCCC (mixture of isomers) [Pam2CSK4, S-[2,3-bis(palmitoyloxy)-(2RS)-propyl]-[R]-cysteinyl-[S]-seryl-[S]-lysyl-[S]-lysyl-[S]-lysyl-[S]-lysine, reference compound] | did not exhibit significant NF-κB induced luciferase activity | High fluorescence | 56.6 |
| CCCCCCCCCCCCCCCC(=O)N[C@@H](CSCC(COC(=O)CCCCCCCCCCCCCCC)OC(=O)CCCCCCCCCCCCCCC)C(=O)N[C@@H](CO)C(=O)N[C@@H](CCCCN)C(=O)N[C@@H](CCCCN)C(=O)N[C@@H](CCCCN)C(=O)N[C@@H](CCCCN)C(=O)O (mixture of isomers) [Pam3CSK4, N-Palmitoyl-S-[2,3-bis(palmitoyloxy)-(2RS)-propyl]-[R]-cysteinyl-[S]-seryl-[S]-lysyl-[S]-lysyl-[S]-lysyl-[S]-lysine, reference compound] | did not exhibit any significant NF-κB luciferase activity; also recorded: did not exhibit significant NF-κB induced luciferase activity; also recorded: no measurable luminescence; also recorded: No activity was observed | High fluorescence | 51.7 |

Source: patent publication US11458212B2, “Molecular imaging of cancer cells in vivo” (H. Lee Moffitt Cancer Center and Research Institute, Inc., priority 2011, dated 2022)
